Experiments:
γδ T cells = settings: acid hydrolysed, diluted in media; 5%-75%; cited from earlier work
[1] = Example 2: body weight, haematology and flow cytometry of immune cells in tumor-bearing mice on supplemented diets with or without chemotherapy; format: in vivo, C57BL/6 (H-2b) mice; settings: for immune cell population / concentration: during the second (tumor-induced) phase; for Global lymphocyte population: following chemotherapy
Procedure: Mice. […] The animals were distributed into 7 different group diets. There was a control group that received the diet AIN 93 for adult rodents (maintenance). Test diets were administered in doses appropriate to the animal model: (a) Ctrl diet were supplemented with 1% (w/w) L-arginine, (b) 25% of the protein was replaced by glutamine, (c) 1% (w/w) L-citrulline, (d) 1 g/Kg body weight with active hexose correlated compound, (e) 20 mg/day of RNA nucleotides and (f) 25 mg/day of lactoferrin. […] Control animals without chemotherapeutic treatment were run in parallel for all tested diets. Body weight was assessed every two days. Blood samples were obtained at day 2, 4 and 10 after the chemo-treatment and at sacrifice (14 or 28 days). An autopsy was performed and tumor mass was assessed.
Haematological Evaluation.
Flow Cytometric Analysis.

MCA-OVA tumor cells = test: Example 2: tumor growth in mice on supplemented diets with or without chemotherapy; format: in vivo, C57BL/6 (H-2b) mice
Procedure: Mice. […] The animals were distributed into 7 different group diets. There was a control group that received the diet AIN 93 for adult rodents (maintenance). […] Control animals without chemotherapeutic treatment were run in parallel for all tested diets. Body weight was assessed every two days. Blood samples were obtained at day 2, 4 and 10 after the chemo-treatment and at sacrifice (14 or 28 days). An autopsy was performed and tumor mass was assessed.
Cancer Cell Lines. Methylcholanthrene (MCA) induced sarcoma cell line expressing the exogenous antigen ovalbumin (OVA) was grown in DMEM or RPMI 1640 supplemented with 2 mM L-glutamine, 10 mM HEPES, 20 μM 2-mercaptoethanol, 150 U/mL streptomycin, 200 U/mL penicillin, and 10% heat-inactivated FBS. 1×10^6 tumor cells were injected in the flank of the mice 6 days prior to the chemotherapy.
Tumor Growth Evaluation. Growth of tumors was monitored every 2 d by using calipers, and tumor volume was calculated by using the formula length×width×width×0.52 mm^3.

[2] = Example 1: body weight and haematological toxicity of chemotherapy in tumor-bearing mice
Procedure: Mice. Inbred eight-week-old C57BL/6 (H-2b) mice were used in the experiments. Mice were inoculated subcutaneously (s.c.) on the left flank with 1×10^6 tumor cells, and tumor growth was monitored every 2 days by caliper measurement. 6 days after the tumor inoculation the animals were treated either with oxaliplatin or doxorubicin. Tumor growth was monitored every two days after the chemotherapeutic treatment and they were sacrificed after two weeks of tumor implantation. Some experiments were carried out until 28 days post-chemo to better assess tumor growth.
Body weight was assessed every two days until sacrifice.
Blood samples were obtained at day 2 and 4 after the chemo-treatment, at day 10 and at sacrifice (14 or 28 days). An autopsy was performed and tumoral mass was assessed.
Haematological Evaluation. Red blood cell enumeration, hemoglobin and hematocrit were measured at 2, 4, 10, 14 and 28 days.
White blood cell counts and differential leukocyte formulation were examined at the same time points. Blood samples were used in addition to determine immune cell populations.
Flow Cytometric Analysis. Cell subset analysis of the CD11c^+, CD11b^+Gr-1^+ and CD11b^+Gr-1^−, CD14^+, CD19^+, CD16^+, CD56^+, CD3^+, CD8^+, CD4^+ was performed. The battery of antibodies used permitted the evaluation of: B and T cell subsets NK, NKT cells, macrophages, dendritic cells, granulocytes.

NK cell = settings: about 750 mg per day for two weeks; cited from earlier work

CCNC(=O)CC[C@H](N)C(=O)O [L-theanine]
expansion of γδ T cells (γδ T cells): 15 fold

N=C(N)NCCC[C@H](N)C(=O)O [arginine, L-arginine]
fall of erythrocytes (RBC) ([1]; between days 6 and 10 post-chemo (FIG. 3)): prevented the marked fall of erythrocytes
immune cell population / concentration [1]: increase immune cell concentration
loss of CD3+ cells ([1]; flow cytometry, around 10 days post chemotherapy): partially modulated
tumor size (MCA-OVA tumor cells; combination with chemotherapy versus chemotherapy alone (FIG. 4)): further reduced the tumor size
progression of the implanted tumor (MCA-OVA tumor cells; compared to other diet groups): delayed progression of the implanted tumor

NC(=O)NCCC[C@H](N)C(=O)O [citrulline, L-citrulline]
Global lymphocyte population [1]: less depressed

NC(=O)CC[C@H](N)C(=O)O [glutamine]
Global lymphocyte population [1]: less depressed

O=C1[O][Pt]2([NH][C@@H]3CCCC[C@H]3[NH]2)[O]C1=O [oxaliplatin]
Maximal weight loss ([1]; maximal dose 10 mg/kg): around 15%
Maximal weight loss ([2]; maximal dose 10 mg/kg, of initial body weight): around 15%
leukocyte counts ([2]; recovery starting after 7 days post chemotherapy): higher that the baseline counts

lactoferrin
toxicity (bone marrow / blood cells) ([1]; chemotherapy treated group versus control (FIG. 11)): less toxicity
immune cell population / concentration [1]: increase in their immune cell population
Global lymphocyte population [1]: less depressed
leukocytic increase (white blood cell counts) ([1]; oxaliplatin treated animals, after day ten): leukocytic increase tended to be higher

vitamin E
NK cell cytolytic activity (NK cell): significantly improved
NKG2D expression (NK cell): small but consistent induction
